Data from patent US20100204224A1, “AZACYCLIC COMPOUNDS AS INHIBITORS OF SENSORY NEURONE SPECIFIC SODIUM CHANNELS” (priority 2005, published 2010).
Counter-ions that a name gives are not always drawn.

Biological target: T1, human Nav1.8 (hNav1.8) ion channel (Homo sapiens, UniProt Q9Y5Y9)
T1 construct: expressed in transfected cells
Experiment: Inhibition of human Nav1.8 stably expressed in SH-SY-5Y cells (membrane potential dye fluorescence assay)
Type: cell-based
Conditions: SH-SY-5Y hNav1.8 cells; FLIPR membrane potential dye; 10 μM pyrethroid, 250 nM TTX; test concentration range 100 μM-0.05 μM; read-out: hNav1.8 IC50

T1 sequence (Q9Y5Y9 whole entry): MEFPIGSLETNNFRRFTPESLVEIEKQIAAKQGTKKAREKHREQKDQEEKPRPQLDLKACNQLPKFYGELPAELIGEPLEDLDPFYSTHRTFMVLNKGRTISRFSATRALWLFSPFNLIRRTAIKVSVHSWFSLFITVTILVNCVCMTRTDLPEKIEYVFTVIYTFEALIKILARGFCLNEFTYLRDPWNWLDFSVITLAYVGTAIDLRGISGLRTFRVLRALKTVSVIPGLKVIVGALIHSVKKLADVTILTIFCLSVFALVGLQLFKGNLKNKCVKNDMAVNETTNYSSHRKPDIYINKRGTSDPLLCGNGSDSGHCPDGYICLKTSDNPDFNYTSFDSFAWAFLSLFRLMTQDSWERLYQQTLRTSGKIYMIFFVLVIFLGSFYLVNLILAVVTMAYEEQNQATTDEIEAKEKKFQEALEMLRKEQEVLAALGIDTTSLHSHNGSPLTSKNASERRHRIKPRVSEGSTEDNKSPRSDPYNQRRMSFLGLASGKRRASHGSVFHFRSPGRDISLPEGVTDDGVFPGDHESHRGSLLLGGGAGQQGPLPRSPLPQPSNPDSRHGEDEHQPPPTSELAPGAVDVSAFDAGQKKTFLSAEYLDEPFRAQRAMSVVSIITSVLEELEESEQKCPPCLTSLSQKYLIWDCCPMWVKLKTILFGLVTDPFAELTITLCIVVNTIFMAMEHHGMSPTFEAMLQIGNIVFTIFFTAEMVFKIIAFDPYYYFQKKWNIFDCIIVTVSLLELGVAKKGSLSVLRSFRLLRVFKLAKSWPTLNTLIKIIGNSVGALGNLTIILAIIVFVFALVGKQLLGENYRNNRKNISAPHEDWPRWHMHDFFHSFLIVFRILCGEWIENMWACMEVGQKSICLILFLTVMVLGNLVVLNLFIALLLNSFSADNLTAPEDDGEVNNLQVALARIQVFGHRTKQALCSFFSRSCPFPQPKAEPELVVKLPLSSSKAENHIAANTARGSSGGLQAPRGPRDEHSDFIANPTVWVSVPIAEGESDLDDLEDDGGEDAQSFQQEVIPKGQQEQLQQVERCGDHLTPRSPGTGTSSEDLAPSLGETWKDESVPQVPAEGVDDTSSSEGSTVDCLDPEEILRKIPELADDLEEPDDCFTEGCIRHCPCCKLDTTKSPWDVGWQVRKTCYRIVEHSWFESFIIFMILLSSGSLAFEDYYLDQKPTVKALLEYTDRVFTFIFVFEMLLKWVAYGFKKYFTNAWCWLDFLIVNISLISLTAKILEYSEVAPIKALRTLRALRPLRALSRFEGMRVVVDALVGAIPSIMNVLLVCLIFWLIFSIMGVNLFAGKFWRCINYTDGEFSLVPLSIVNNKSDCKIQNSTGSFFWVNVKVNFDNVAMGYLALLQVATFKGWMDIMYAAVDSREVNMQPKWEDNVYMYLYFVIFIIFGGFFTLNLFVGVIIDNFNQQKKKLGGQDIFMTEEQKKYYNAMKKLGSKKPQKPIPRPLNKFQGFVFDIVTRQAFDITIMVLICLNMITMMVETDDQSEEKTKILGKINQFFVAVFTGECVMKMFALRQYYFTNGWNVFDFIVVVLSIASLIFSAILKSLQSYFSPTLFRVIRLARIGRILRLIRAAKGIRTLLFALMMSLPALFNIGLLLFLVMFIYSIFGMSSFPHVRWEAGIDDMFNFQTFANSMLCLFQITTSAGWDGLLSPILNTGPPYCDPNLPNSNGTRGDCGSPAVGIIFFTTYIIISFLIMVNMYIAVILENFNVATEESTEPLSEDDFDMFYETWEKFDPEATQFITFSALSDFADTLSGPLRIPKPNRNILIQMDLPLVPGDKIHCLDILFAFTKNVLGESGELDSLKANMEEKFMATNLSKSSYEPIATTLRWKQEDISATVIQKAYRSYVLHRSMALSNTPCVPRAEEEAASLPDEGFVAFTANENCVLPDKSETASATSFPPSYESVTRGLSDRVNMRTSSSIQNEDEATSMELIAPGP

Compared with C=CCOC(=O)NCCOc1ccc(NC(=O)N2CC3CC2CN3C(C)c2ccccc2C)cc1 (stereo not shown) [Example 28, [2-(4-{[5-(1-o-Tolyl-ethyl)-2,5-diaza-bicyclo[2.2.1]heptane-2-carbonyl]-amino}-phenoxy)-ethyl]-carbamic acid allyl ester], CC(c1ccccc1Cl)N1CCC2(CCN(C(=O)Nc3ccc(Oc4ccc(F)cc4)cc3)C2)C1 (stereo not shown) [Example 111, 7-[1-(2-Chloro-phenyl)-ethyl]-2,7-diaza-spiro[4.4]nonane-2-carboxylic acid [4-(4-fluoro-phenoxy)-phenyl]-amide] is 13-fold lower in IC50: 4890 nM for the first, 380 nM for the second. The second is the more potent here.

Going from CC(c1ccccn1)N1CC2CC1CN2C(=O)c1ccc(Oc2cccc(C#N)c2)cc1 (stereo not shown) [Example 180, 3-{4-[5-(1-Pyridin-2-yl-ethyl)-2,5-diaza-bicyclo[2.2.1]heptane-2-carbonyl]-phenoxy}-benzonitrile] to “1-{5-[1-(2,5-Dichloro-phenyl)-ethyl]-2,5-diaza-bicyclo[2.2.1]hept-2-yl}-2-[4-(4-fluoro-phenoxy)-phenyl]-ethanone [Example 157]”, the IC50 rises from 4650 nM to at least 30000 nM.

CC(c1ccc(F)cc1)N1CC2CC1CN2C(=O)Nc1ccc(C(F)(F)F)cc1 (stereo not shown) [Example 53, 5-[1-(4-Fluoro-phenyl)-ethyl]-2,5-diaza-bicyclo[2.2.1]heptane-2-carboxylic acid (4-trifluoromethyl-phenyl)-amide] and O=C(Nc1ccc(C(F)(F)F)cc1)N1CC2CC1CN2C1Cc2ccc(F)cc2C1 (stereo not shown) [Example 130, 5-(5-Fluoro-indan-2-yl)-2,5-diaza-bicyclo[2.2.1]heptane-2-carboxylic acid (4-trifluoromethyl-phenyl)-amide] are within 1.5-fold of each other in IC50: 2500 nM for the first, 3610 nM for the second.

Going from Cc1ccccc1C(C)N1CC2CC1CN2C(=O)Nc1ccc(OCC2CCCCO2)cc1 (stereo not shown) [Example 25, 5-(1-o-Tolyl-ethyl)-2,5-diaza-bicyclo[2.2.1]heptane-2-carboxylic acid [4-(tetrahydro-pyran-2-ylmethoxy)-phenyl]-amide] to Cc1ccsc1C(C)N1CC2CC1CN2C(=O)Nc1ccc(C(F)(F)F)cc1 (stereo not shown) [Example 15, 5-[1-(3-Methyl-thiophen-2-yl)-ethyl]-2,5-diaza-bicyclo[2.2.1]heptane-2-carboxylic acid (4-trifluoromethyl-phenyl)-amide], the IC50 falls from 5380 nM to 3040 nM (1.8-fold).

First: Cc1ccc(Oc2ccc(NC(=O)N3CC4CC3CN4C(C)c3ccccc3Cl)cc2)cc1 (stereo not shown) [Example 140, 5-[1-(2-Chloro-phenyl)-ethyl]-2,5-diaza-bicyclo[2.2.1]heptane-2-carboxylic acid (4-p-tolyloxy-phenyl)-amide]
Second: O=C(Nc1ccc(Oc2ccc(F)cc2)cc1)N1CC2CC1CN2C1CCc2ccccc2C1 (stereo not shown) [Example 101, 5-(1,2,3,4-Tetrahydro-naphthalen-2-yl)-2,5-diaza-bicyclo[2.2.1]heptane-2-carboxylic acid [4-(4-fluoro-phenoxy)-phenyl]-amide methanesulfonate salt]
The IC50 of the first is 3.6-fold higher: 1230 nM for the first, 340 nM for the second. The second is the more potent here.

Compared with Cc1ccccc1C(C)N1CC2CC1CN2C(=O)Nc1ccc(Oc2ccccc2)cc1 (stereo not shown) [Example 32, 5-(1-o-Tolyl-ethyl)-2,5-diaza-bicyclo[2.2.1]heptane-2-carboxylic acid (4-phenoxy-phenyl)-amide], O=C(Nc1ccc(Oc2ccccc2)cc1)N1CC2CC1CN2C1CCc2cccc(Cl)c21 (stereo not shown) [Example 141, 5-(7-Chloro-indan-1-yl)-2,5-diaza-bicyclo[2.2.1]heptane-2-carboxylic acid (4-phenoxy-phenyl)-amide] is 3.5-fold lower in IC50: 710 nM for the first, 200 nM for the second.

First: CC(c1ccc(F)cc1)N1CC2CC1CN2C(=O)Nc1ccc(Oc2ccccc2)cc1 (stereo not shown) [Example 48, 5-[1-(4-Fluoro-phenyl)-ethyl]-2,5-diaza-bicyclo[2.2.1]heptane-2-carboxylic acid (4-phenoxy-phenyl)-amide]
Second: CC(c1ccccc1Cl)N1CC2CC1CN2C(=O)c1ccc(Oc2ccc(F)cc2)cc1 (stereo not shown) [Example 152, {5-[1-(2-Chloro-phenyl)-ethyl]-2,5-diaza-bicyclo[2.2.1]hept-2-yl}-[4-(4-fluoro-phenoxy)-phenyl]-methanone]
The IC50 of the first is 6-fold lower: 420 nM for the first, 2520 nM for the second. The first is the more potent here.

Going from CC(c1ccccc1Cl)N1CC2CC1CN2C(=O)c1ccc(Oc2cccc(C#N)c2)cc1 (stereo not shown) [Example 174, 3-(4-{5-[1-(2-Chloro-phenyl)-ethyl]-2,5-diaza-bicyclo[2.2.1]heptane-2-carbonyl}-phenoxy)-benzonitrile] to CC(c1ccccc1Cl)N1CC2CC1CN2C(=O)c1cc2ccccc2[nH]1 (stereo not shown) [Example 149, {5-[1-(2-Chloro-phenyl)-ethyl]-2,5-diaza-bicyclo[2.2.1]hept-2-yl}-(1H-indol-2-yl)-methanone], the IC50 rises from 1400 nM to 5840 nM (4.2-fold). The first is the more potent here.

O=C(Nc1ccc(Oc2ccc(F)cc2)cc1)N1CC2CC1CN2C1Cc2ccc(F)cc2C1 (stereo not shown) [Example 131, 5-(5-Fluoro-indan-2-yl)-2,5-diaza-bicyclo[2.2.1]heptane-2-carboxylic acid [4-(4-fluoro-phenoxy)-phenyl]-amide] and CC(Cc1ccccc1Cl)N1CC2CC1CN2C(=O)Nc1ccc(C(F)(F)F)cc1 (stereo not shown) [Example 82, 5-[2-(2-Chloro-phenyl)-1-methyl-ethyl]-2,5-diaza-bicyclo[2.2.1]heptane-2-carboxylic acid (4-trifluoromethyl-phenyl)-amide] are within 1.5-fold of each other in IC50: 550 nM for the first, 440 nM for the second.

First: Cc1ccccc1C(C)N1CC2CC1CN2C(=O)Nc1ccc(-c2ccccc2)cc1 (stereo not shown) [Example 39, 5-(1-o-Tolyl-ethyl)-2,5-diaza-bicyclo[2.2.1]heptane-2-carboxylic acid biphenyl-4-ylamide]
Second: O=C(c1ccc(C(F)(F)F)cc1)N1CC2CC1CN2C1CCc2ccc(F)cc2C1 (stereo not shown) [Example 138, [5-(7-Fluoro-1,2,3,4-tetrahydro-naphthalen-2-yl)-2,5-diaza-bicyclo[2.2.1]hept-2-yl]-(4-trifluoromethyl-phenyl)-methanone]
The IC50 of the first is 13-fold lower: 1060 nM for the first, 13300 nM for the second.

Compared with CC(c1ccc(F)cc1Cl)N1CC2CC1CN2C(=O)c1ccc(Oc2ccc(F)cc2)cc1 (stereo not shown) [Example 164, {5-[1-(2-Chloro-4-fluoro-phenyl)-ethyl]-2,5-diaza-bicyclo[2.2.1]hept-2-yl}-[4-(4-fluoro-phenoxy)-phenyl]-methanone], CC(c1ccc(F)cc1)N1CC2CC1CN2C(=O)Nc1ccc(Oc2ccccc2)cc1 (stereo not shown) [Example 51, 5-[1-(4-Fluoro-phenyl)-ethyl]-2,5-diaza-bicyclo[2.2.1]heptane-2-carboxylic acid (4-phenoxy-phenyl)-amide] is 33-fold lower in IC50: 13500 nM for the first, 410 nM for the second.

COCCCOc1ccc(NC(=O)N2CC3CC2CN3C(C)c2ccccc2C)cc1 (stereo not shown) [Example 27, 5-(1-o-Tolyl-ethyl)-2,5-diaza-bicyclo[2.2.1]heptane-2-carboxylic acid [4-(3-methoxy-propoxy)-phenyl]-amide] and CC(c1c(F)cccc1F)N1CC2CC1CN2C(=O)Nc1ccc(C(F)(F)F)cc1 (stereo not shown) [Example 13, 5-[1-(2,6-Difluoro-phenyl)-ethyl]-2,5-diaza-bicyclo[2.2.1]heptane-2-carboxylic acid (4-trifluoromethyl-phenyl)-amide] are within 1.5-fold of each other in IC50: 8480 nM for the first, 6360 nM for the second.

O=C(Nc1ccc(Oc2ccc(F)cc2)cc1)N1CC2CN(C3Cc4ccccc4C3)CC2C1 (stereo not shown) [Example 112, 5-Indan-2-yl-hexahydro-pyrrolo[3,4-c]pyrrole-2-carboxylic acid [4-(4-fluoro-phenoxy)-phenyl]-amide] and Cc1ccc(C(C)N2CC3CC2CN3C(=O)Nc2ccc(Oc3ccc(F)cc3)cc2)c(C)c1 (stereo not shown) [Example 117, 5-[1-(2,4-Dimethyl-phenyl)-ethyl]-2,5-diaza-bicyclo[2.2.1]heptane-2-carboxylic acid [4-(4-fluoro-phenoxy)-phenyl]-amide] are within 1.5-fold of each other in IC50: 300 nM for the first, 420 nM for the second.

Cc1ccccc1C(C)N1CC2CC1CN2C(=O)Nc1ccc(C(F)(F)F)cc1 (stereo not shown) [Example 6, 5-(1-o-Tolyl-ethyl)-2,5-diaza-bicyclo[2.2.1]heptane-2-carboxylic acid (4-trifluoromethyl-phenyl)-amide] and CC(c1ccccc1Cl)N1CC2CC1CN2C(=O)c1ccc(Oc2ccc(F)cc2)cc1 (stereo not shown) [Example 151, {5-[1-(2-Chloro-phenyl)-ethyl]-2,5-diaza-bicyclo[2.2.1]hept-2-yl}-[4-(4-fluoro-phenoxy)-phenyl]-methanone] are within 1.5-fold of each other in IC50: 990 nM for the first, 1110 nM for the second.

Compared with CC(c1ccccc1Cl)N1CC2CC1CN2C(=O)Nc1ccc(Oc2ccc(Cl)cc2)cc1 (stereo not shown) [Example 128, 5-[1-(2-Chloro-phenyl)-ethyl]-2,5-diaza-bicyclo[2.2.1]heptane-2-carboxylic acid [4-(4-chloro-phenoxy)-phenyl]-amide], CC(c1ccccc1Cl)N1CC2CC1CN2C(=O)Nc1ccc(Oc2ccc(F)cc2)c(F)c1 (stereo not shown) [Example 110, 5-[1-(2-Chloro-phenyl)-ethyl]-2,5-diaza-bicyclo[2.2.1]heptane-2-carboxylic acid [3-fluoro-4-(4-fluoro-phenoxy)-phenyl]-amide] is 6.8-fold lower in IC50: 1420 nM for the first, 210 nM for the second. The second is the more potent here.

With Cc1ccccc1C(C)N1CC2CC1CN2C(=O)Nc1ccc(OCCc2ccccn2)cc1 (stereo not shown) [Example 45, 5-(1-o-Tolyl-ethyl)-2,5-diaza-bicyclo[2.2.1]heptane-2-carboxylic acid [4-(2-pyridin-2-yl-ethoxy)-phenyl]-amide] the IC50 was 3270 nM.

Same assay, conditions: hNav1.8 IC50, SH-SY-5Y hNav1.8 cells; FLIPR membrane potential dye; 10 μM pyrethroid, 250 nM TTX; test concentration range 100 μM-0.05 μM

Going from Cc1ccccc1C(C)N1CC2CC1CN2C(=O)Nc1ccc(Oc2ccc(F)cc2)cc1 (stereo not shown) [Example 78, 5-(1-o-Tolyl-ethyl)-2,5-diaza-bicyclo[2.2.1]heptane-2-carboxylic acid [4-(4-fluoro-phenoxy)-phenyl]-amide fumarate salt] to CC(c1ccccc1Br)N1CC2CC1CN2C(=O)Cc1ccc(Oc2ccc(F)cc2)cc1 (stereo not shown) [Example 154, 1-{5-[1-(2-Bromo-phenyl)-ethyl]-2,5-diaza-bicyclo[2.2.1]hept-2-yl}-2-[4-(4-fluoro-phenoxy)-phenyl]-ethanone], the IC50 rises from 230 nM to 4310 nM (19-fold).

Work on O=C(Cc1ccc(C(F)(F)F)cc1)N1CC2CC1CN2C1CCc2ccccc2C1 (stereo not shown) [Example 147, 1-[5-(1,2,3,4-Tetrahydro-naphthalen-2-yl)-2,5-diaza-bicyclo[2.2.1]hept-2-yl]-2-(4-trifluoromethyl-phenyl)-ethanone] yielded an IC50 of 3100 nM.
